According to patent publication US11254663B2 (BRISTOL-MYERS SQUIBB COMPANY, priority 2019, dated 2022):

biological target: T1, FXR (Homo sapiens (Human), UniProt Q96RI1); assay: transient human FXR/Gal4-luciferase reporter assay; type: cell-based; settings: not given
Procedure, shortened: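 Compound exposure ran overnight at 37 °C and activity was measured as luminescence with Steady-Glo reagent. The cells were a HEK293 line stably expressing firefly luciferase under five Gal4 response elements. They were transiently transfected, one night beforehand, with a plasmid encoding Gal4 DNA-binding domain fused to the human FXR ligand-binding domain.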

T1 sequence (Q96RI1 262-486): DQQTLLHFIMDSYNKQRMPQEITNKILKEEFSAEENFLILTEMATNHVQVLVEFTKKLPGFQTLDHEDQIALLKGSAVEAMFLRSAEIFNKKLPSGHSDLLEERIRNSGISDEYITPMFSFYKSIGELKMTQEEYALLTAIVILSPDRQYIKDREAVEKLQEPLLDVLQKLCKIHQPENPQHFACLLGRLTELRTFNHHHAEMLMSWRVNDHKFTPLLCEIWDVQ

SMILES	EC50 [nM]
CCOc1ccc(-c2cncc(N(CC34CCC(c5nc(C(C)(C)C)no5)(CC3)CC4)C(=O)C34CC(F)(C3)C4)c2)cn1 [Example 477, N-((4-(3-(tert-butyl)-1,2,4-oxadiazol-5-yl)bicyclo[2.2.2]octan-1-yl)methyl)-N-(6′-ethoxy-[3,3′-bipyridin]-5-yl)-3-fluorobicyclo[1.1.1]pentane-1-carboxamide]	485
CC(C)(C)c1nc(C23CCC(CN(C(=O)C45CC(F)(C4)C5)c4cc(-c5ccc(OC(F)F)cc5)ccn4)(CC2)CC3)no1 [Example 533, N-((4-(5-(tert-butyl)-1,2,4-oxadiazol-3-yl)bicyclo[2.2.2]octan-1-yl)methyl)-N-(4-(4-(difluoromethoxy)phenyl)pyridin-2-yl)-3-fluorobicyclo[1.1.1]pentane-1-carboxamide]	26
CC(C)(O)c1ccc(-c2cccc(N(CC34CCC(c5noc(C(C)(C)F)n5)(CC3)CC4)C(=O)NCCN3CCOCC3)c2)cc1 [Example 649, 1-((4-(5-(2-fluoropropan-2-yl)-1,2,4-oxadiazol-3-yl)bicyclo[2.2.2]octan-1-yl)methyl)-1-(4′-(2-hydroxypropan-2-yl)-[1,1′-biphenyl]-3-yl)-3-(2-morpholinoethyl)urea]	600
CC(C)(O)c1ccc(-c2cccc(N(CC34CCC(c5noc(C(C)(C)F)n5)(CC3)CC4)C(=O)NCC3(O)CC3)c2)cc1 [Example 648, 1-((4-(5-(2-fluoropropan-2-yl)-1,2,4-oxadiazol-3-yl)bicyclo[2.2.2]octan-1-yl)methyl)-3-((1-hydroxycyclopropyl)methyl)-1-(4′-(2-hydroxypropan-2-yl)-[1,1′-biphenyl]-3-yl)urea]	509

same assay, conditions: Gal4-hFXR fusion construct, HEK293 reporter cells; response relative to 8 μM GW-4064

EC50 [nM]	SMILES
2130	COc1cc(-c2cccc(N(CC34CCC(c5cc(C(F)(F)F)ccn5)(CC3)CC4)C(=O)C3CCC3)c2)ccn1 [Example 240, N-(3-(2-methoxypyridin-4-yl)phenyl)-N-((4-(4-(trifluoromethyl)pyridin-2-yl)bicyclo[2.2.2]octan-1-yl)methyl)cyclobutanecarboxamide]
2040	CCOc1ncc(-c2cccc(N(CC34CCC(c5cnc(C(F)(F)F)nc5)(CC3)OC4)C(=O)C34CC(F)(C3)C4)c2)cn1 [Example 418, N-(3-(2-ethoxypyrimidin-5-yl)phenyl)-3-fluoro-N-((1-(2-(trifluoromethyl)pyrimidin-5-yl)-2-oxabicyclo[2.2.2]octan-4-yl)methyl)bicyclo[1.1.1]pentane-1-carboxamide]
32	CC(C)(O)Cn1cc(-c2cc(N(CC34CCC(c5noc(C(C)(F)F)n5)(CC3)CC4)C(=O)NC34CC(C3)C4)ccc2F)cn1 [Example 633, 3-(bicyclo[1.1.1]pentan-1-yl)-1-((4-(5-(1,1-difluoroethyl)-1,2,4-oxadiazol-3-yl)bicyclo[2.2.2]octan-1-yl)methyl)-1-(4-fluoro-3-(1-(2-hydroxy-2-methylpropyl)-1H-pyrazol-4-yl)phenyl)urea]
321	CCOc1ncc(-c2cc(N(CC34CCC(c5noc(C(C)(C)C)n5)(CC3)CC4)C(=O)C34CC(F)(C3)C4)ccn2)cn1 [Example 596, N-((4-(5-(tert-butyl)-1,2,4-oxadiazol-3-yl)bicyclo[2.2.2]octan-1-yl)methyl)-N-(2-(2-ethoxypyrimidin-5-yl)pyridin-4-yl)-3-fluorobicyclo[1.1.1]pentane-1-carboxamide]
384	O=C(NC12CCC(CN(C(=O)C3CC(O)(C(F)(F)F)C3)c3cccc(-c4ccc(OC(F)F)cc4)c3)(CC1)CC2)c1ccc(F)cc1 (stereo not drawn) [Example 637, N-(4-(((cis)-N-(4′-(difluoromethoxy)-[1,1′-biphenyl]-3-yl)-3-hydroxy-3-(trifluoromethyl)cyclobutane-1-carboxamido)methyl)bicyclo[2.2.2]octan-1-yl)-4-fluorobenzamide]

SMILES	EC50 [nM]
Cc1nc2ccc(-c3cccc(N(CC45CCC(c6cc(C(F)(F)F)ccn6)(CC4)CC5)C(=O)C45CC(F)(C4)C5)c3)cc2s1 [Example 356, 3-fluoro-N-(3-(2-methylbenzo[d]thiazol-6-yl)phenyl)-N-((4-(4-(trifluoromethyl)pyridin-2-yl)bicyclo[2.2.2]octan-1-yl)methyl)bicyclo[1.1.1]pentane-1-carboxamide]	800
O=C(N(CC12CCC(c3nc(C4CC4)no3)(CC1)CC2)c1cccc(-c2ccc3[nH]c(=O)oc3c2)c1)C12CC(F)(C1)C2 [Example 261, N-((4-(3-cyclopropyl-1,2,4-oxadiazol-5-yl)bicyclo[2.2.2]octan-1-yl)methyl)-3-fluoro-N-(3-(2-oxo-2,3-dihydrobenzo[d]oxazol-6-yl)phenyl)bicyclo[1.1.1]pentane-1-carboxamide]	48
Cc1nc2ncc(-c3cccc(N(CC45CCC(c6nc(C7CC7)no6)(CC4)CC5)C(=O)C45CC(F)(C4)C5)c3)cc2s1 [Example 278, N-((4-(3-cyclopropyl-1,2,4-oxadiazol-5-yl)bicyclo[2.2.2]octan-1-yl)methyl)-3-fluoro-N-(3-(2-methylthiazolo[4,5-b]pyridin-6-yl)phenyl)bicyclo[1.1.1]pentane-1-carboxamide]	83

biological target: T1, FXR; assay: FXR EC50 (FXR agonist potency reported with each Example); type: cell-based; settings: not given

SMILES	EC50 [nM]
CC(C)(C)c1nc(C23CCC(CN(C(=O)C45CC(F)(C4)C5)c4cc(-c5cnn(C(F)F)c5)ccn4)(CC2)CC3)no1 [Example 212, N-((4-(5-(tert-butyl)-1,2,4-oxadiazol-3-yl)bicyclo[2.2.2]octan-1-yl)methyl)-N-(4-(1-(difluoromethyl)-1H-pyrazol-4-yl)pyridin-2-yl)-3-fluorobicyclo[1.1.1]pentane-1-carboxamide]	11
N#CC1(c2ccc(C34CCC(CN(C(=O)C5CC(F)(F)C5)c5cccc(-c6nc(C7CC7)no6)c5)(CC3)CO4)cc2)CC1 [Example 142, N-((1-(4-(1-cyanocyclopropyl)phenyl)-2-oxabicyclo[2.2.2]octan-4-yl)methyl)-N-(3-(3-cyclopropyl-1,2,4-oxadiazol-5-yl)phenyl)-3,3-difluorocyclobutuane-1-carboxamide]	583
O=C(N(CC12CCC(c3noc(C4CC4)n3)(CC1)CC2)c1cccc(-c2nc(C3CC3)no2)c1)C12CC(F)(C1)C2 [Example 116, N-((4-(5-cyclopropyl-1,2,4-oxadiazol-3-yl)bicyclo[2.2.2]octan-1-yl)methyl)-N-(3-(3-cyclopropyl-1,2,4-oxadiazol-5-yl)phenyl)-3-fluorobicyclo[1.1.1]pentane-1-carboxamide]	117
CCOc1nnc(-c2cccc(N(CC34CCC(c5nc(C6CC6)no5)(CC3)CC4)C(=O)C34CC(F)(C3)C4)c2)o1 [Example 53, N-((4-(3-cyclopropyl-1,2,4-oxadiazol-5-yl)bicyclo[2.2.2]octan-1-yl)methyl)-N-(3-(5-ethoxy-1,3,4-oxadiazol-2-yl)phenyl)-3-fluorobicyclo[1.1.1]pentane-1-carboxamide]	81
COc1cc(-c2cccc(N(CC34CCC(c5ccc(C(C)(C)C#N)cc5)(CC3)OC4)C(=O)C3CCCC3)c2)ccn1 [Example 224, N-((1-(4-(2-cyanopropan-2-yl)phenyl)-2-oxabicyclo[2.2.2]octan-4-yl)methyl)-N-(3-(2-methoxypyridin-4-yl)phenyl)cyclopentanecarboxamide]	894
